Reference: patent US7691601B2, “Medium for detecting and/or identifying of microorganisms” (priority 2003, dated 2010)

Tests used:
[1] = test system: free esterases in a stool sample; assay: Coloration at the point of deposit of the stool on Salmonella detection medium (Magenta C8); format: biochemical; parameters: key to Deposit coloration: 0=no coloration; 0.5=trace of coloration; 1=weak coloration; 2=strong coloration; details: for Aspecific enzymatic reactions due to the presence of free enzymes: stools, Salmonella detection medium, summary in words
Protocol: (§1) Preparation of the detection medium: A volume of 250 ml of detection medium is prepared from a powdered medium having the following composition:
(§2) Melting is carried out at 100° C., and the medium is autoclaved at 121° C. for 15 minutes. The additives are then added to the medium: Magenta C8 (500 mg/l; B-7102, BIOSYNTH, Staad, Switzerland); X-glucoside (75 mg/l; B-7250, BIOSYNTH, Staad, Switzerland); cefsulodine (10 mg/l; C 4786, Sigma, St Quentin Fallavier, France) and various concentrations of the inhibitor O,O-diethyl p-nitrophenyl phosphate (Paraoxon® ethyl; CAS No. 311-45-5; 36186, Riedel-de Haën, St Quentin Fallavier, France; 0; 1; 5 or 10 mg/l).
(§3) The various detection media thus obtained are then poured into Petri dishes.
(§4) Seeding of Salmonella bacteria: 10 μl of stools are deposited onto a Petri dish, this stool suspension is mixed or not mixed with 10 μl of a suspension of Salmonella (0.5 McF) and isolated as 3 dials on a Petri dish. Various […] and various Salmonella strains originating from the applicant's collection are used according to this protocol. The Petri dishes are incubated at 37° C. for 24 hours. The appearance of a coloration at the point of deposit of the stool (“deposit” column) and at the Salmonella colony (“colony” column) is read according to a semi-quantitative scale: • 0=no coloration • 0.5=trace of coloration • 1=weak coloration • 2=strong coloration The results obtained are given in Table 1.
as §2, with “O,O-dimethyl” for “O,O-diethyl”, “methyl;” for “ethyl;”, “950-35-6;” for “311-45-5; 36186,”, “5, 10, 25” for “0; 1; 5 or 10”
(§5) Seeding of Salmonella bacteria: The Petri dishes are inoculated, incubated and read as in Example 1.
(§6) Preparation of the detection medium: 250 ml of the medium of Example 1, in which the O,O-diethyl p-nitrophenyl phosphate is replaced with various concentrations of O,O-di-(2-chloroethyl)-O-(3-chloro-4-methylcoumarin-7-yl)phosphate (Haloxon®; CAS No. 321-55-1; R276995, Sigma, St Quentin Fallavier, France; 0; 1; 10; 100 or 1000 mg/l), are prepared according to the method of Example 1.
(§7) The various selection media thus obtained are then poured into Petri dishes.

free esterases in stools = assay: Coloration at the point of deposit of the stool on Candida detection medium; format: biochemical; details: summary in words
Protocol: as §1
(§8) Melting is carried out at 100° C., and the medium is autoclaved at 121° C. for 15 minutes. The additives are then added to the medium: Magenta C8 (500 mg/l; B-7102, BIOSYNTH, Staad, Switzerland); X-glucoside (75 mg/l; B-7250, BIOSYNTH, Staad, Switzerland); cefsulodine (10 mg/l; C 4786, Sigma, St Quentin Fallavier, France), and also the esterase inhibitor: • ? O,O-diethyl p-nitrophenyl phosphate: 5 mg/l • ? O,O-dimethyl p-nitrophenyl phosphate: 25 mg/l or • ? O,O-di-(2-chloroethyl)-O-(3-chloro-4-methylcoumarin-7-yl)phosphate: 75 mg/l
as §7
(§9) Seeding of yeast of the Candida genus: 10 μl of stools are deposited onto a Petri dish, and this stool suspension is mixed or not mixed with 10 μl of a suspension of Candida and isolated as 3 dials on a Petri dish. Various stools and various strains of Candida genus originating from the applicant's collection are used according to this protocol. The Petri dishes are incubated at 37° C. for 24 hours.
(§10) The appearance of a coloration at the point of deposit of the stool and in the Candida colonies is read according to a semi-quantitative scale: • 0=absence of coloration • 0.5=trace coloration • 1=weak coloration • 2=strong coloration.

Candida dubliniensis [2] = assay: Coloration of Candida dubliniensis colonies on detection medium; format: cell-based; parameters: key: 0=absence of coloration; 0.5=trace coloration; 1=weak coloration; 2=strong coloration; details: Table 4, 5 mg/l
Protocol: as §1, §8, §7, §9, §10

Salmonella Paratyphi A = assay: Coloration of Salmonella Paratyphi A colonies on detection medium; format: cell-based; parameters: key: 0=no coloration; 0.5=trace of coloration; 1=weak coloration; 2=strong coloration
Protocol: as §1, §2, §3, §4, §6, §7, §5

Salmonella Enteritidis = assay: Coloration of Salmonella Enteritidis colonies on detection medium; format: cell-based; parameters: key: 0=no coloration; 0.5=trace of coloration; 1=weak coloration; 2=strong coloration
Protocol: as §1, §2, §3, §4
as §2, with “O,O-dimethyl” for “O,O-diethyl”, “methyl;” for “ethyl;”, “950-35-6;” for “311-45-5; 36186,”, “5, 10, 25” for “0; 1; 5 or 10”
as §5, §6, §7

Candida dubliniensis [3] = assay: Coloration of Candida dubliniensis colonies on detection medium; format: cell-based; parameters: key: 0=no coloration; 0.5=trace of coloration; 1=weak coloration; 2=strong coloration; details: Table 4, 25 mg/l
Protocol: as §1, §8, §7, §9, §10

For `CCOP(=O)(OCC)Oc1ccc([N+](=O)[O-])cc1` [O,O-diethyl p-nitrophenyl phosphate], which Deposit coloration ([1]; Table 1, 1 mg/l, stool A, Salmonella Enteritidis) is on record?
Its Deposit coloration is 0.5.

And the Deposit coloration ([1]; Table 1, 1 mg/l, stool A, Salmonella Paratyphi A)?
Its Deposit coloration is 0.5.

And the Deposit coloration ([1]; Table 1, 1 mg/l, stool A, Salmonella Typhi)?
The Deposit coloration was 0.5.

And the Deposit coloration ([1]; Table 1, 1 mg/l, stool A, no strain)?
The Deposit coloration was 0.5.

What about the Deposit coloration ([1]; Table 1, 1 mg/l, stool B, Salmonella Enteritidis) of the same compound?
Its Deposit coloration is 0.

And the Deposit coloration ([1]; Table 1, 1 mg/l, stool B, Salmonella Paratyphi A)?
The Deposit coloration was 0.

What about the Deposit coloration ([1]; Table 1, 1 mg/l, stool B, Salmonella Typhi) of the same compound?
Its Deposit coloration is 0.

What about the Deposit coloration ([1]; Table 1, 1 mg/l, stool B, no strain) of the same compound?
Its Deposit coloration is 0.

What about the Deposit coloration ([1]; Table 1, 5 mg/l, stool A, Salmonella Enteritidis) of the same compound?
Its Deposit coloration is 0.

What about the Deposit coloration ([1]; Table 1, 5 mg/l, stool A, Salmonella Paratyphi A) of the same compound?
The Deposit coloration was 0.

What about the Deposit coloration ([1]; Table 1, 5 mg/l, stool A, Salmonella Typhi) of the same compound?
Its Deposit coloration is 0.

What about the Deposit coloration ([1]; Table 1, 5 mg/l, stool A, no strain) of the same compound?
The Deposit coloration was 0.

What about the Deposit coloration ([1]; Table 1, 5 mg/l, stool B, Salmonella Enteritidis) of the same compound?
Its Deposit coloration is 0.

What about the Deposit coloration ([1]; Table 1, 5 mg/l, stool B, Salmonella Paratyphi A) of the same compound?
Its Deposit coloration is 0.

And the Deposit coloration ([1]; Table 1, 5 mg/l, stool B, Salmonella Typhi)?
The Deposit coloration was 0.

What about the Deposit coloration ([1]; Table 1, 5 mg/l, stool B, no strain) of the same compound?
The Deposit coloration was 0.

What about the Deposit coloration ([1]; Table 1, 10 mg/l, stool A, Salmonella Enteritidis) of the same compound?
The Deposit coloration was 0.

And the Deposit coloration ([1]; Table 1, 10 mg/l, stool A, Salmonella Paratyphi A)?
The Deposit coloration was 0.

What about the Deposit coloration ([1]; Table 1, 10 mg/l, stool A, Salmonella Typhi) of the same compound?
The Deposit coloration was 0.

What about the Deposit coloration ([1]; Table 1, 10 mg/l, stool A, no strain) of the same compound?
The Deposit coloration was 0.

What about the Deposit coloration ([1]; Table 1, 10 mg/l, stool B, Salmonella Enteritidis) of the same compound?
Its Deposit coloration is 0.

And the Deposit coloration ([1]; Table 1, 10 mg/l, stool B, Salmonella Paratyphi A)?
The Deposit coloration was 0.

And the Deposit coloration ([1]; Table 1, 10 mg/l, stool B, Salmonella Typhi)?
The Deposit coloration was 0.

And the Deposit coloration ([1]; Table 1, 10 mg/l, stool B, no strain)?
Its Deposit coloration is 0.

What about the “Aspecific enzymatic reactions due to the presence of free enzymes” value [1] of the same compound?
The value was “greatly inhibited”.

And the “Aspecific enzymatic reactions due to the presence of free enzymes” value (free esterases in stools)?
Its value is “greatly inhibited”.

And the Colonies coloration (Candida dubliniensis [2]; stool A)?
The Colonies coloration was 0.5.

And the Colonies coloration (Candida dubliniensis [2]; stool B)?
Its Colonies coloration is 0.5.

And the Colonies coloration (Salmonella Paratyphi A; Table 1, 1 mg/l, stool A)?
Its Colonies coloration is 1.

What about the Colonies coloration (Salmonella Paratyphi A; Table 1, 1 mg/l, stool B) of the same compound?
Its Colonies coloration is 1.

And the Colonies coloration (Salmonella Paratyphi A; Table 1, 5 mg/l, stool A)?
The Colonies coloration was 1.

And the Colonies coloration (Salmonella Paratyphi A; Table 1, 5 mg/l, stool B)?
The Colonies coloration was 1.

What about the Colonies coloration (Salmonella Paratyphi A; Table 1, 10 mg/l, stool A) of the same compound?
Its Colonies coloration is 1.

What about the Colonies coloration (Salmonella Paratyphi A; Table 1, 10 mg/l, stool B) of the same compound?
The Colonies coloration was 1.

What about the Colonies coloration (Salmonella Enteritidis; Table 1, 1 mg/l, stool A) of the same compound?
The Colonies coloration was 2.

And the Colonies coloration (Salmonella Enteritidis; Table 1, 1 mg/l, stool B)?
The Colonies coloration was 2.

And the Colonies coloration (Salmonella Enteritidis; Table 1, 5 mg/l, stool A)?
Its Colonies coloration is 2.

And the Colonies coloration (Salmonella Enteritidis; Table 1, 5 mg/l, stool B)?
The Colonies coloration was 2.

And the Colonies coloration (Salmonella Enteritidis; Table 1, 10 mg/l, stool A)?
Its Colonies coloration is 2.

And the Colonies coloration (Salmonella Enteritidis; Table 1, 10 mg/l, stool B)?
The Colonies coloration was 2.

How did the Deposit coloration ([1]; Table 2, 5 mg/l, stool C, Salmonella Enteritidis) turn out when `COP(=O)(OC)Oc1ccc([N+](=O)[O-])cc1` [O,O-dimethyl p-nitrophenyl phosphate] was run?
Its Deposit coloration is 1.

What about the Deposit coloration ([1]; Table 2, 5 mg/l, stool C, Salmonella Typhi) of the same compound?
Its Deposit coloration is 1.

And the Deposit coloration ([1]; Table 2, 5 mg/l, stool C, no strain)?
Its Deposit coloration is 1.

What about the Deposit coloration ([1]; Table 2, 5 mg/l, stool D, Salmonella Enteritidis) of the same compound?
The Deposit coloration was 1.

What about the Deposit coloration ([1]; Table 2, 5 mg/l, stool D, Salmonella Typhi) of the same compound?
Its Deposit coloration is 1.

And the Deposit coloration ([1]; Table 2, 5 mg/l, stool D, no strain)?
Its Deposit coloration is 1.

And the Deposit coloration ([1]; Table 2, 10 mg/l, stool C, Salmonella Enteritidis)?
The Deposit coloration was 0.5.

What about the Deposit coloration ([1]; Table 2, 10 mg/l, stool C, Salmonella Typhi) of the same compound?
Its Deposit coloration is 0.5.

And the Deposit coloration ([1]; Table 2, 10 mg/l, stool C, no strain)?
Its Deposit coloration is 0.5.

And the Deposit coloration ([1]; Table 2, 10 mg/l, stool D, Salmonella Enteritidis)?
The Deposit coloration was 1.

And the Deposit coloration ([1]; Table 2, 10 mg/l, stool D, Salmonella Typhi)?
The Deposit coloration was 1.

What about the Deposit coloration ([1]; Table 2, 10 mg/l, stool D, no strain) of the same compound?
Its Deposit coloration is 1.

And the Deposit coloration ([1]; Table 2, 25 mg/l, stool C, Salmonella Enteritidis)?
Its Deposit coloration is 0.

And the Deposit coloration ([1]; Table 2, 25 mg/l, stool C, Salmonella Typhi)?
The Deposit coloration was 0.

What about the Deposit coloration ([1]; Table 2, 25 mg/l, stool C, no strain) of the same compound?
The Deposit coloration was 0.

What about the Deposit coloration ([1]; Table 2, 25 mg/l, stool D, Salmonella Enteritidis) of the same compound?
The Deposit coloration was 0.

And the Deposit coloration ([1]; Table 2, 25 mg/l, stool D, Salmonella Typhi)?
The Deposit coloration was 0.

And the Deposit coloration ([1]; Table 2, 25 mg/l, stool D, no strain)?
Its Deposit coloration is 0.

What about the “Aspecific enzymatic reactions due to the presence of free enzymes” value [1] of the same compound?
The value was “greatly inhibited”.

And the Colonies coloration (Candida dubliniensis [3]; stool A)?
Its Colonies coloration is 1.

What about the Colonies coloration (Candida dubliniensis [3]; stool B) of the same compound?
Its Colonies coloration is 1.

What about the “Aspecific enzymatic reactions due to the presence of free enzymes” value (free esterases in stools) of the same compound?
Its value is “greatly inhibited”.

What about the Colonies coloration (Salmonella Enteritidis; Table 2, 5 mg/l, stool C) of the same compound?
Its Colonies coloration is 2.

And the Colonies coloration (Salmonella Enteritidis; Table 2, 5 mg/l, stool D)?
Its Colonies coloration is 2.

And the Colonies coloration (Salmonella Enteritidis; Table 2, 10 mg/l, stool C)?
The Colonies coloration was 2.

And the Colonies coloration (Salmonella Enteritidis; Table 2, 10 mg/l, stool D)?
Its Colonies coloration is 2.

What about the Colonies coloration (Salmonella Enteritidis; Table 2, 25 mg/l, stool C) of the same compound?
Its Colonies coloration is 2.

What about the Colonies coloration (Salmonella Enteritidis; Table 2, 25 mg/l, stool D) of the same compound?
Its Colonies coloration is 2.
